Some test systems named below: CAKI-1 renal; HCT-116 colon; HOP-92 NSCLC; K-562 leukemia; NCI-H522 lung; OVCAR-5 ovarian; OVCAR-8 ovarian; RXF 393 renal; MDA-MB-435; DU-145 prostate.
Experiment in all cases: NCI anticancer screen, dose series, 48 h

Values joined by “and” are separate entries in the source; they are usually repeats but may differ in a detail not shown here. Equal values may be shown once.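 Values below derive from 48-hour exposures of cells grown in 96-well plates, with endpoints linearly interpolated between the two concentrations bracketing the appropriate inhibition level. GI50 marks 50% less growth. TGI marks complete inhibition of growth.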 Where only a bound is given, the exact number is not on record here.

Consider `COCC(=O)CP(=O)(OC)OC`, for which the TGI with CAKI-1 renal, in the assay with HCT-116 colon, in the assay with HOP-92 NSCLC, in the assay with K-562 leukemia, in the assay on NCI-H522 lung and in the assay on OVCAR-5 ovarian was over 100 µM each time. Also, the TGI in the assay with OVCAR-8 ovarian and with RXF 393 renal was over 100 µM throughout.

In the case of `COc1ccc2c(c1OC)C1=C(C2=O)c2cc3c(cc2CCN1)OCO3`, the TGI with CAKI-1 renal was 83 µM; with HCT-116 colon, over 100 µM; in the assay with HOP-92 NSCLC, over 100 µM; in the assay with K-562 leukemia it was 87.8 µM; in the assay on OVCAR-5 ovarian, 97.4 µM; in the assay with OVCAR-8 ovarian, over 100 µM. Moreover, the TGI with RXF 393 renal was over 100 µM.

Take `CC(=O)OC1CC2C(C)(C)C(=O)C=C[C@]2(C)C2CCC3(C)C(c4ccoc4)C(=O)[C@H]4O[C@]43[C@]12C` (stereo partly specified): the TGI in the assay with CAKI-1 renal came out at 75.1 µM; in the assay with HCT-116 colon it was 28.7 µM; in the assay on HOP-92 NSCLC it was 34.4 µM; in the assay on K-562 leukemia, 59.5 µM; in the assay on NCI-H522 lung it was 36.9 µM; with OVCAR-5 ovarian it was 42.5 µM. The TGI was determined as 49.9 µM with OVCAR-8 ovarian and 47.5 µM with RXF 393 renal.

For `NC1CCN(c2nc(Nc3cccc(C(F)(F)F)c3)c3c(=O)[nH]ccc3n2)CC1`, the GI50 with CAKI-1 renal is 0.444 µM; with HCT-116 colon, 1.09 µM; in the assay with HOP-92 NSCLC, 1.44 µM; in the assay with K-562 leukemia it was 1.18 µM; in the assay on MDA-MB-435 it was 1.09 µM; in the assay on NCI-H522 lung it was 1.76 µM. In addition, the GI50 in the assay with OVCAR-5 ovarian is 1.68 µM; with OVCAR-8 ovarian, 2.06 µM; in the assay with RXF 393 renal, 1.31 µM. Besides, the TGI in the assay with CAKI-1 renal is 1.88 µM; with HCT-116 colon, 2.3 µM; with HOP-92 NSCLC it was 3.04 µM; in the assay with K-562 leukemia it was 3.21 µM; in the assay on MDA-MB-435, 2.42 µM; with NCI-H522 lung it was 3.57 µM. Further, the figures for the TGI in the assay on OVCAR-5 ovarian, with OVCAR-8 ovarian and with RXF 393 renal were 3.44 µM, 4.91 µM and 2.67 µM, respectively.

As for `CCOC(=O)C(CO)c1nc2c([nH]c1=O)c(=O)n(C)c(=O)n2C` (stereo unspecified), the TGI with CAKI-1 renal, with DU-145 prostate, with HCT-116 colon, with K-562 leukemia, in the assay with MDA-MB-435 and with NCI-H522 lung was over 100 µM in each case. Besides, the TGI in the assay with OVCAR-5 ovarian and in the assay with OVCAR-8 ovarian was over 100 µM each time.

`Cc1c(C(=O)NCCO)[n+](=O)c2cc(Cl)ccc2n1[O-]`: the TGI in the assay with HCT-116 colon, with HOP-92 NSCLC, in the assay with K-562 leukemia, in the assay with OVCAR-5 ovarian, in the assay with OVCAR-8 ovarian and with RXF 393 renal was over 100 µM each time.

Turning to `CN1NC2(CCCCC2)ON=C1c1ccccc1`, the TGI in the assay on CAKI-1 renal, in the assay on HCT-116 colon, with HOP-92 NSCLC, with K-562 leukemia, in the assay on NCI-H522 lung and in the assay on OVCAR-5 ovarian was over 100 µM throughout. Besides, the TGI with OVCAR-8 ovarian and with RXF 393 renal was over 100 µM throughout.

With `O=c1cc2ccccc2nn1Cc1ccccc1Cl`, the TGI with CAKI-1 renal, in the assay on HCT-116 colon, in the assay with HOP-92 NSCLC, with K-562 leukemia, in the assay with OVCAR-5 ovarian and with OVCAR-8 ovarian was over 100 µM in each case.

With `O=C(O)/C(=C/c1c(O)ccc2ccccc12)c1csc(-c2nc(/C(=C\c3c(O)ccc4ccccc34)C(=O)O)cs2)n1`, the TGI with HCT-116 colon is 23.3 µM; in the assay on HOP-92 NSCLC, 7.77 µM; with K-562 leukemia, 38.6 µM; with OVCAR-5 ovarian, 31.9 µM; with OVCAR-8 ovarian, 49.4 µM; in the assay with RXF 393 renal, 14 µM.

Consider `C1CCN(c2nsc(N3CCCCC3)n2)CC1`, for which the TGI in the assay on CAKI-1 renal, with HCT-116 colon, in the assay on HOP-92 NSCLC, in the assay on K-562 leukemia, in the assay with NCI-H522 lung and with OVCAR-5 ovarian was over 100 µM throughout. The TGI in the assay on OVCAR-8 ovarian and in the assay on RXF 393 renal was over 100 µM each time.

Turning to `CO/C1=C\C(C)=C\C(C)C(O)C(C)C/C(C)=C/C=C/C(OC)C(C(C)C(O)C(C)C2(O)CC(O)C(C)C(C(C)C)O2)OC1=O` (stereo unspecified), the GI50 with CAKI-1 renal was 0.021 µM; in the assay with RXF 393 renal it was 11.1 µM. Moreover, the TGI in the assay with CAKI-1 renal was determined as 9.89 µM; in the assay on HOP-92 NSCLC it was 0.0225 µM; in the assay with K-562 leukemia it was 13.7 µM; in the assay with MDA-MB-435 it was 0.0042 µM; in the assay on OVCAR-8 ovarian it was 10.4 µM.

As for `CCOC(=O)C1(Cc2ccccc2)CCCCCN1` (stereo unspecified), the TGI in the assay on CAKI-1 renal, in the assay with HOP-92 NSCLC, in the assay with K-562 leukemia, in the assay on OVCAR-8 ovarian and in the assay with RXF 393 renal was over 100 µM each time.

Regarding `CN(C)N1C(=O)c2ccccc2NC1c1ccccc1` (stereo unspecified), the TGI with CAKI-1 renal, in the assay with DU-145 prostate, in the assay on HCT-116 colon, with HOP-92 NSCLC, with MDA-MB-435 and in the assay with NCI-H522 lung was over 100 µM throughout. The TGI with OVCAR-5 ovarian and in the assay on OVCAR-8 ovarian was over 100 µM each time.

Consider `CCNC(=O)C#CC(=O)NCC`, for which the GI50 in the assay with CAKI-1 renal, with HCT-116 colon, with HOP-92 NSCLC, in the assay with K-562 leukemia, with OVCAR-5 ovarian and with OVCAR-8 ovarian was over 10 µM in each case. Moreover, in the assay on RXF 393 renal, the GI50 is over 100 µM. Further, the TGI was over 100 µM with CAKI-1 renal; > 10 µM and 47.7 µM in the assay on HCT-116 colon; over 100 µM in the assay on HOP-92 NSCLC; over 70.2 µM with K-562 leukemia; over 100 µM with NCI-H522 lung; over 100 µM with OVCAR-5 ovarian. The TGI in the assay with OVCAR-8 ovarian and in the assay with RXF 393 renal was over 100 µM each time.

For the compound `CCC(=O)C(C)C1=Nc2nnc(CCCCCCCc3nnc4n3C(=O)C(C(C)C(=O)CC)=N4)n2C1=O` (stereo unspecified), the TGI in the assay with CAKI-1 renal, with HCT-116 colon, in the assay with HOP-92 NSCLC, with K-562 leukemia, in the assay on NCI-H522 lung and in the assay with OVCAR-5 ovarian was over 100 µM each time. Besides, the TGI in the assay on OVCAR-8 ovarian and in the assay with RXF 393 renal was over 100 µM each time.

These data come from PubChem BioAssay (NCI).
